Results published in US9180174B2, “Conjugates comprising mannan and myelin oligodentrocyte glycoprotein (MOG)” (priority 2008, dated 2015).
Ends that are not written are not given here.

Columns and labels:
EAE = EAE in animal models (summary statements); format: in vivo; conditions: unconjugated peptide
Procedure: (§1) Groups of female animals (age range 6-10 week old C57BL/6 or SJL/J mice and 12-15 week old Lewis rats) were immunized intra-dermally with 100 μl solution containing 30 μg peptide (MOG35-55) or 50 μg PLP139-151 peptide for mice and 30 μg MBP83-99 for Lewis rats) conjugated to 70 μg oxidized or reduced mannan diluted in bi-carbonate buffer, pH 9.0. As controls, age matched groups of animals were vaccinated with oxidized or reduced mannan alone, saline or 30-50 μg of peptide alone. Three consecutive vaccinations were performed spaced 15 days apart. Fifteen days after the last vaccination EAE was induced.

MOG35-55-EAE [1] = assay: Prophylactic vaccination before MOG35-55-EAE induction, clinical score and body weight; format: in vivo, C57BL/6 mice; conditions: for protection from MOG35-55-EAE development (clinical score): three vaccinations 15 days apart, EAE induced 15 days after the last, FIG. 1
MOG35-55-EAE [2] = assay: Histopathological analysis of spinal cord and brain after MOG35-55-EAE induction; format: in vivo, C57BL/6 mice
splenocytes [3] = assay: T cell priming and proliferation assay, [3H]-thymidine incorporation, ex vivo MOG35-55 recall; format: cell-based, C57BL/6 mice; conditions: day 25 post EAE induction, versus mannan alone or PBS; FIGS. 7 and 8
Procedure: Isolated splenocytes were cultured for 72 h in 96-well plates in RPMI 1640 (Invitrogen Life Technologies, Gaithersburg, Md.) containing 10% heat-inactivated FCS, 50 μM 2-ME, and increasing concentrations of MOG35-55 peptide. Cells were stimulated in triplicate at 2×10^6 cells/ml in round-bottom, 96-well plates (Costar). Cells were pulsed with 1 μCi/5×10^5 cells [^3H]-thymidine in triplicate (Amersham Radiochemicals) for the last 16 h of culture. [^3H]-thymidine incorporation was measured by liquid scintillation counting (Wallac, Turku, Finland). Results are expressed as the stimulation index (ratio between radioactivity counts of cells cultured in presence of peptide and cells cultured with media alone).

splenocytes [4] = assay: Cytokines in splenocyte culture supernatants (cytometric bead array, IL-17 ELISA); format: cell-based, C57BL/6 mice; conditions: 10 μg/ml MOG35-55, day 25 post EAE induction; FIG. 9
Excerpt: The mouse Th1/Th2 cytokine cytometric bead array kit (BD Biosciences) was used to measure cytokine levels in culture supernatants according to the manufacturer's instructions. The cytokines measured with this kit were: IL-2, IL-4, IL-5, IFN-γ and TNF-α. In addition a mouse IL-17 ELISA set (R&D Systems, Germany) was used to measure cytokine secretion from splenocyte cell culture supernatants according to manufacturer's instructions. The sensitivity of the assay for different cytokines was as follows: IL-2, IL-4 and IL-5=5.0 pg/ml; IFN-γ=2.5 pg/ml; TNF-α=6.3 pg/ml.

PLP139-151-EAE = assay: Prophylactic vaccination before PLP139-151-EAE induction, clinical score; format: in vivo, SJL/J mice; conditions: FIG. 10; for clinical score (peak): 6-grade scale, 0.5 = weight loss
Procedure: as §1
EAE was induced in SJL/J mice using a standard protocol. 150 μg of PLP139-151 was dissolved in PBS and emulsified in an equal volume of CFA (containing […] of heat killed Mycobacterium Tuberculosis HR37a, Sigma). On Day 0 (day of disease induction), one s.c injection was given by injecting 150 μg PLP139-151/200 μl per mouse in both of the flanks. Each mouse also received 400 ng pertussis toxin (Sigma, P2980) (i.p) dissolved in 200 μl PBS. On day 2, mice were received a booster of pertussis toxin (200 ng pertussis toxin dissolved in 200 μl PBS per mouse) Animals were daily evaluated for clinical signs of disease, starting from day 1 post immunisation, using a 6-grade clinical scale: 0, normal animal; 0.5, weight loss; 1, inability to elevate the tail above the horizontal level, tail weakness; 2, tail paralysis; 3, tail paralysis/hind limb paresis; 4, hind limb paralysis/forelimb weakness; 5, quadriplegia/moribund; 6, death from EAE. Moreover, animals were daily weighted throughout the entire experimental period.

[5] = 24 days after EAE induction, FIG. 5

## H-Glu-Asn-Pro-Val-Val-His-Phe-Phe-Lys-Asn-Ile-Val-Thr-Pro-Arg-Thr-Pro-OH (H-ENPVVHFFKNIVTPRTP-OH) [MBP83-99]
EAE
  induction of EAE by the linear peptide: induce EAE

## reduced mannan-MOG35-55: MOG35-55 peptide with a [(Lys-Gly)5] bridge conjugated to mannan, reduced with sodium borohydride (MEVGWYRSPFSRVVHLYRNGK; also: (KG)5 bridge, site not given here, conjugated to mannan, reduced with sodium borohydride; UniProt Q61885 63-83, looked up, fragment)
MOG35-55-EAE [1]
  protection from MOG35-55-EAE development (clinical score): significant protection
MOG35-55-EAE [1]; listed as MOG35-55 peptide conjugated to reduced mannan
  protection from MOG35-55-EAE development (clinical score): significant inhibition from disease manifestation
MOG35-55-EAE [2]; [5]
  extent of lymphocyte infiltration and demyelination (overall protective effect): Intermediate protective effects
Splenocytes [3]
  proliferation of splenocytes: Significant reduced proliferation
Splenocytes [4]
  amount of IL-17 secreted by MOG35-55 specific T cells: reduction
  levels of Th1 cytokines (IFN-γ, TNF-α, IL-2): reduction

## reduced mannan-PLP139-151: PLP139-151 peptide with a [(Lys-Gly)5] bridge conjugated to mannan, reduced with sodium borohydride
PLP139-151-EAE
  clinical score (peak): 0.5
  induction of / protection from PLP139-151-EAE: did not induce EAE

## oxidized mannan-PLP139-151: PLP139-151 peptide with a [(Lys-Gly)5] bridge conjugated to oxidized mannan via Schiff base formation
PLP139-151-EAE
  clinical score (peak): 0.5
  induction of / protection from PLP139-151-EAE: did not induce EAE
PLP139-151-EAE; listed as PLP139-151-oxidized mannan
  induction of / protection from PLP139-151-EAE: completely protected

## H-Met-Glu-Val-Gly-Trp-Tyr-Arg-Pro[Ser]-Pro-Phe-Ser-Arg-Val-Val-His-Leu-Tyr-Arg-Asn-Gly-Lys-OH [MOG35-55, reference compound]
MOG35-55-EAE [1]; after day 20, FIGS. 3 and 4
  disease course after day 20 of disease progression: exacerbated
MOG35-55-EAE [1]; initial stages, FIGS. 3 and 4
  EAE compared to non vaccinated controls at initial stages of disease: significantly lower
MOG35-55-EAE [1]; three prior challenges with unconjugated peptide, FIGS. 3 and 4
  susceptibility to MOG-EAE after vaccination with peptide alone: still susceptible to MOG-EAE
MOG35-55-EAE [1]; versus non-vaccinated controls, FIGS. 3 and 4
  delay of EAE initiation: 3 days
Splenocytes [3]
  proliferation of splenocytes: did not show a reduction
EAE
  induction of EAE by the linear peptide: induce EAE

## H-His-Ser-Leu-Gly-Lys-Trp-Leu-Gly-His-Pro-Asp-Lys-Phe-OH (H-HSLGKWLGHPDKF-OH) [PLP139-151]
EAE
  induction of EAE by the linear peptide: induce EAE

## oxidized mannan-MOG35-55: MOG35-55 peptide with a [(Lys-Gly)5] bridge conjugated to oxidized mannan via Schiff base formation (MEVGWYRSPFSRVVHLYRNGK; also: (Lys-Gly)5 bridge, site not given here, conjugated to oxidized mannan via Schiff base; UniProt Q61885 63-83, looked up, fragment)
MOG35-55-EAE [1]; FIG. 2
  wasting symptoms (daily weight measurement): absence of wasting symptoms
MOG35-55-EAE [1]
  protection from MOG35-55-EAE development (clinical score): significant protection
MOG35-55-EAE [1]; listed as MOG35-55 peptide conjugated to oxidized mannan
  protection from MOG35-55-EAE development (clinical score): greatest degree of protection
MOG35-55-EAE [2]; [5]
  demyelinating lesions in the spinal cord: no demyelinating lesions
  inflammatory infiltration in the spinal cord: little inflammatory infiltration
MOG35-55-EAE [2]; individual mice, FIG. 6
  inflammatory and demyelination index, brain and spinal cord: marked reduction
Splenocytes [3]
  proliferation of splenocytes: Significant reduced proliferation
Splenocytes [4]
  amount of IL-17 secreted by MOG35-55 specific T cells: reduction
  levels of Th1 cytokines (IFN-γ, TNF-α, IL-2): reduction
